In ChEMBL document CHEMBL4420067, “Inhibitors of alpha-amino-beta-carboxymuconic acid semialdehyde decarboxylase” (2018):
pIC50: −log10 of the molar value.

molecular target: 2-amino-3-carboxymuconate-6-semialdehyde decarboxylase (Homo sapiens, UniProt Q8TDX5); assay: Inhibition of human recombinant ACMSD1 expressed in Escherichia coli BL21 (DE3) cells assessed as reduction in conversion of 3-OH-anthranilic acid into ACMS by spectrophotometry
Sequence (Q8TDX5 whole entry): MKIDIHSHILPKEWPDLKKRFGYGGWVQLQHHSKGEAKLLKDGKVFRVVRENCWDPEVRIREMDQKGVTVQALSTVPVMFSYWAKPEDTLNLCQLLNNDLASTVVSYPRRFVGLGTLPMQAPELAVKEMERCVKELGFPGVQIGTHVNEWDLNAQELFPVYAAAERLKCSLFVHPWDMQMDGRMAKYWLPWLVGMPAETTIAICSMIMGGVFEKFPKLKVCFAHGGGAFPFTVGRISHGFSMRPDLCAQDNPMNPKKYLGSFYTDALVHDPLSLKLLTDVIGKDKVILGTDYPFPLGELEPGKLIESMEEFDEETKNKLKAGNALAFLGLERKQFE

| pIC50 | Compound |
| --- | --- |
| < 7.00 | N#Cc1c(/C=C/c2ccccc2-c2cc(F)c(O)c(F)c2)[nH]c(=S)[nH]c1=O |
| < 7.00 | COc1cccc(/C=C/c2[nH]c(=O)[nH]c(=O)c2[N+](=O)[O-])c1OCC(=O)O |
| < 7.00 | N#Cc1c(/C=C/c2cccc(O)c2O)[nH]c(=S)[nH]c1=O |
| < 7.00 | CCOc1cccc(/C=C/c2[nH]c(=S)[nH]c(=O)c2C#N)c1OCC(=O)O |
| < 7.00 | COc1cccc(/C=C/c2[nH]c(=S)[nH]c(=O)c2C#N)c1OCC(=O)O |
